# Laboratory results taken from the METLIN SMRT retention time set (Domingo-Almenara et al. 2019).
# Experiment: gradient 5% acetonitrile 3 min, to 50% in 2 min, to 85% in 15 min, held 3 min, 100 µL/min
# Conditions: column: Zorbax Extend-C18 2.1 x 50 mm; eluents: water / acetonitrile, 0.1% formic acid
# Summary of the method: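 A Zorbax Extend-C18 column (2.1 × 50 mm, 1.8 μm) run at 100 μL/min with water and acetonitrile, both containing 0.1% formic acid, separated mixtures of ~100 pure standards. The HPLC was coupled to a quadrupole time-of-flight mass spectrometer operated in positive and negative ionization mode, with dead and dwell volumes of 40 μL and 900 μL. Each retention time was taken from a computationally picked adduct peak that was then manually inspected.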
row,Compound,RP-LC retention time [s]
1,CCNC(=O)C1CCc2sc(C(=O)N3CCCC3)cc2C1 (centres undefined),663
2,Cc1ccccc1-c1noc(C2CCCN2S(=O)(=O)c2ccc3c(c2)CCCC3)n1 (centres undefined),1340
3,O=C(COc1ncccn1)NC1CCCCC1,624
4,Cc1c(C(=O)NCC2CC2)cnn1-c1cc(-c2nc(C3CC3)no2)ccn1,909
5,O=C(Cc1nnc2c(-c3nc(C4CC4)no3)cccn12)NC1CCCCCC1,720
6,Cc1nnc(N2CCCC(C(=O)NCc3ccc4c(c3)OCO4)C2)c2nn(-c3ccccc3)c(C)c12 (centres undefined),698
7,Brc1c(Br)c(Br)c2[nH]cnc2c1Br,979
8,O=C(c1cc(-c2ccccc2)n[nH]1)N1CCC2(CC1)N=C(c1ccccc1)NO2,785
9,O=S(=O)(c1ccccc1Cl)N1CCc2nc(-c3ccc(F)cc3)ncc2C1,1100
10,CCOc1ccc(NC(=O)c2cnc(N3CCN(c4ccc(OC)cc4)CC3)nc2N)cc1,767
11,CC(C)(Oc1ccc(Cl)cc1)C(=O)Nc1c(-c2ccccc2)nc2ccccn12,783
12,Cc1nnc(N2CCCC(C(=O)NCc3cccs3)C2)c2nn(-c3ccccc3)c(C)c12 (centres undefined),702
13,Cc1ccc(Cl)cc1NS(=O)(=O)c1cc(-c2cc(C(F)(F)F)on2)sc1C,1240
14,Cc1ccc(NC(=O)C2CCN(S(=O)(=O)c3ccc4c(c3)CCCC(=O)N4)CC2)cc1N(C)C,698
15,O=C(NCc1ccccn1)C1CCN(c2nc3cccnc3s2)CC1,588
16,COc1cc(-c2nnc(-c3cccc(S(=O)(=O)N4CCC(C)CC4)c3)o2)cc(OC)c1OC,755
17,CC(=O)N1CCCc2cc(S(=O)(=O)CCC(=O)N3CCN(c4cc(C)ccc4C)CC3)ccc21,936
18,COc1ccc(-c2noc(-c3nc(Cc4cccc(F)c4)no3)n2)cc1OC,1100
19,O=C(Nc1ccc(Oc2ccccc2)cc1)c1cccc([N+](=O)[O-])c1C(=O)O,788
20,COc1ccc2cc(C(=O)N3CCC(CC(=O)NCCc4c[nH]c5ccc(Cl)cc45)CC3)[nH]c2c1,841
21,COc1ccc(S(=O)(=O)CCc2noc(C(=O)NCCN3CCC(C)CC3)n2)cc1,646
22,Cc1oc(-c2ccc(NC(=O)CC3CCCCC3)cc2)nc1Cn1cccn1,966
23,Cc1cc2nn(CC(=O)NCc3ccc(F)cc3)c(=O)n2c(Nc2ccccc2C)n1,977

row,Compound,RP-LC retention time [s]
1,Cc1noc2ncn(CC(=O)Nc3ccc(F)cc3F)c(=O)c12,744
2,CCOc1ccc(-c2cc3c(=O)n(Cc4nc(-c5ccc(CC)cc5)no4)ncn3n2)cc1,1300
3,O=C(Nc1cc(F)ccc1F)Nc1cccn2cnnc12,727
4,O=C1NCCCn2cc(S(=O)(=O)NCc3ccc(OC(F)(F)F)cc3)cc21,740
5,CCCn1cnc2cc(-c3noc(COc4cccc(C)c4)n3)ccc21,840
6,COCCn1cc(CCNC(=O)Nc2ccc(Cl)cc2)c2cccnc21,760
7,CN(C)C(=O)c1cc2c(s1)CCC(C(=O)NCCc1ccncc1)C2 (centres undefined),563
8,CN(C)S(=O)(=O)c1ccc(-c2nnc(C(=O)NCC3CCCCC3)o2)cc1,937
9,CCC(=O)NCCc1c[nH]c2ccc(Cl)cc12,743
10,CCOc1nc2ccccc2nc1N1CCCC(C(=O)NCc2ccco2)C1 (centres undefined),1020
11,Cc1ccc(S(=O)(=O)N2CCC(C(=O)NCc3cscn3)CC2)c(C)c1,752
12,CCOc1ccc(C(=O)NC2(c3nc(C)no3)CCCCC2)cc1OCC,903
13,Cc1nc(OCC(=O)Nc2ccccc2Br)c2ccccc2n1,745
14,CCn1c(=O)n(CC)c2cc(NC3=NS(=O)(=O)c4ccccc43)ccc21,702
15,CC(NC(=O)C1CCN(C(=O)c2ncn3c2COC(c2ccccc2)C3)CC1)c1ccc(F)cc1 (centres undefined),848
16,Cc1ccsc1C(=O)N1CCC(c2nc(CCOCC3CC3)no2)C1 (centres undefined),812
17,COc1ccc(-c2noc(C3CCCN3C(=O)Nc3ccccc3C)n2)cc1 (centres undefined),983
18,COc1ccc(S(=O)(=O)N2CCC(OCc3noc(C4CCCO4)n3)CC2)cc1 (centres undefined),863
19,CCc1ccc(NS(=O)(=O)c2cc(-c3cc(C(F)(F)F)on3)sc2C)cc1,1230
20,COc1cccc(S(=O)(=O)N2CCC(Cc3nncn3C(C)C)C2)c1 (centres undefined),664
21,CCN1CCCn2cc(S(=O)(=O)Nc3ccc(C)cc3C)cc2C1=O,763
22,COc1ccc(-c2nnc(COc3ccc(NC(=O)c4cccnc4SC)cc3)o2)cc1,893
23,N#Cc1cnc(-c2ccc(F)cc2)n(CC(=O)Nc2ccc(C(F)(F)F)cc2)c1=O,1040

row,Compound,RP-LC retention time [s]
1,Cc1c(F)cccc1NC(=O)C1CCc2nc(N3CCOCC3)ncc2C1 (centres undefined),808
2,COC(=O)c1sc2ccccc2c1NC(=O)c1ccc([N+](=O)[O-])o1,871
3,O=C(c1cn(Cc2ccccc2)cc2c(=O)n(-c3ccccc3)nc1-2)N1CCc2ccccc21,916
4,Cc1ccc(S(=O)(=O)N2CCC(CN3CCCC(C)C3)CC2)cc1F (centres undefined),702
5,Cc1cc(=O)n(CC(=O)Nc2ccccc2)c(N)n1,580
6,COc1ccccc1NC(=O)Cn1nc2c(Oc3cccc(F)c3)nccn2c1=O,867
7,O=C(Cn1ccn(-c2cccc(Cl)c2)c(=O)c1=O)NCc1ccco1,641
8,CCc1nn(CC(=O)N2CCN(c3ccccn3)CC2)c(=O)c2cc3sccc3n12,612
9,CCOC(=O)c1c(C)oc2ncnc(Nc3ccc(OC)c(Cl)c3)c12,1270
10,O=C1CC(c2noc(-c3ccccc3F)n2)CN1c1ccc(F)cc1 (centres undefined),916
11,Cc1nn(-c2ccccc2)c2sc(C(=O)NC(C)C)cc12,966
12,O=C(Nc1cccc(Cl)c1)C(=O)c1c[nH]c2ccccc12,1040
13,Cc1nn(CC(=O)N2CCN(C(C)C)CC2)c(=O)c2nc(-c3ccccc3)sc12,620
14,Cc1ccc(NC(=O)c2cccn2Cc2noc(C)n2)c(Br)c1,942
15,CCC1CN2C=NC(N3CCN(S(=O)(=O)Cc4cccc(F)c4)CC3)=CC2=N1 (centres undefined),680
16,CCN1C(=O)COc2ccc(-c3noc(C4CC(=O)N(c5ccc(C)c(C)c5)C4)n3)cc21 (centres undefined),992
17,COc1cccc(N2CCN(S(=O)(=O)c3cc(-c4csc(C)n4)ccc3C)CC2)c1,1190
18,CCn1nccc1C(=O)N1CCN(c2ncnc3c2CCC3)CC1,556
19,COc1cc([C@@H]2c3cc4c(cc3[C@H](O)[C@@H](CO)[C@@H]2C(=O)NC2CCCC2)OCO4)cc(OC)c1OC,689
20,CCc1cc(=O)n(CC(=O)Nc2ccc(F)cc2)c(N2CCOCC2)n1,714
21,COc1ccc(-c2noc(-c3ccc(NC(=O)c4ccc(Br)o4)cc3)n2)cc1,1190
22,Cc1ccc(C)c2sc(N(C)CC(=O)NCCn3nc(-c4ccco4)ccc3=O)nc12,784
23,CCOC(=O)C1CCN(C(=O)CCC(=O)N2CCCn3nc(C)cc32)CC1,646

row,Compound,RP-LC retention time [s]
1,CC(C)Cc1ccc(S(=O)(=O)N2CCCC2c2nc(-c3ccc(F)cc3)no2)cc1 (centres undefined),1360
2,O=S(=O)(Nc1ccccc1F)c1c[nH]c2ncccc12,697
3,Cc1csc(NC(=O)c2cn(Cc3cccc(F)c3)nc2OCc2cccc(F)c2)n1,1080
4,CC1CCc2onc(C(=O)N(C)Cc3ccccc3)c2C1 (centres undefined),1020
5,CC1=C(C(=O)OCCC#N)C(c2ccccc2F)NC(=O)N1 (centres undefined),645
6,COCCn1ccc2nc(C)c(C(=O)NCc3ccc(SC)cc3)cc2c1=O,712
7,O=C1CCN(C(=O)c2cccs2)CCCC(CO)CCN1 (centres undefined),581
8,Cc1ccc(NC(=O)N2CCc3nc(-c4ccc(Cl)cc4)ncc3C2)cc1C,1160
9,Nc1nc(Nc2ccccc2F)nc2ccccc12,600
10,Cc1ccccc1-c1noc(CSc2nc3cc4c(cc3c(=O)n2Cc2ccccc2)OCO4)n1,1300
11,Cc1cc(Cl)ccc1NC(=O)c1cc2n(n1)CCCC2,975
12,O=C(C1=NN(Cc2ccccc2F)c2ccccc2S1(=O)=O)N1CCCCC1,939
13,Cc1ccc(-c2nnc(-c3ccc(Br)cc3)o2)cc1S(=O)(=O)N(C)C,1090
14,O=C(Cc1ccc(NC(=O)c2ccncc2)cc1)NC1CC1,547
15,CCCSCCCNC(=O)Cn1c(=O)c(C)nc2cc(C)c(C)cc21,828
16,CCn1c(C(=O)N2CCCC(C(=O)N3CCN(c4cccc(C)c4C)CC3)C2)cc2sccc21 (centres undefined),1140
17,Cc1ccc(CNC(=O)C2(C)CCN(C(=O)c3ccccc3C(F)(F)F)CC2)cc1,894
18,CCOC(=O)C1CCN(c2ncc(S(=O)(=O)c3ccccc3)c(N)n2)CC1,885
19,O=C(NC1CCN(c2cc(-c3ccccc3)[nH]n2)C1)c1ccccc1F (centres undefined),756
20,COCCNc1nc(-c2ccc(C(C)(C)C)cc2)nc2ccccc12,790
